Laboratory results reported in patent US20230415137A1, “PHOTOCATALYST COMPOSITION, PHOTOCATALYST COMPOSITION SOLUTION, PHOTOCATALYST MEMBER, METHOD FOR USING PHOTOCATALYST COMPOSITION, AND SPACE DISINFECTION METHOD” (priority 2020, published 2023).

System: indigenous bacteria collected from the ultrasonic humidifier
Assay: Bactericidal evaluation (photocatalyst composition solutions, first example group)
Format: cell-based
Conditions: riboflavin sodium phosphate set to 10,000 ppm, no sacrificial agent
Protocol: The indigenous bacteria collected from the ultrasonic humidifier is adjusted to a predetermined concentration, then was added to an autoclave-sterilized normal bouillon medium (Eiken (register trade mark), manufactured by Eiken Chemical Co., Ltd.). Shaking culture for 24 hours was performed in a shaking incubator at 30° C. and 120 rpm. The solution when the number of bacteria reached about 1.5×10^9 CFU/ml was used as an inoculum solution.
Separately, the photocatalyst composition solutions obtained in the above Examples and Comparative Examples were also autoclave sterilized.
The inoculum solution was diluted with each of the photocatalyst composition solutions of the above Examples and Comparative Examples to prepare a solution having the number of bacteria of 1.5×10^7 CFU/ml, which was used as a test solution.
Two similar samples for each example and comparative example were prepared and stored under the following two conditions. The number of bacteria was measured using “Sani-Check BF” (manufactured by Biosan Laboratories, Inc.) and evaluation was performed according to the following evaluation criteria. […]

## Cc1cc2nc3c(=O)[nH]c(=O)nc-3n(C[C@H](O)[C@H](O)[C@H](O)COP(=O)(O)O)c2cc1C [riboflavin sodium phosphate]
  bactericidal effect as worded in the text: a certain degree of bactericidal effect
